Results as given in US9561201B2, “Therapeutic compounds” (Fibrotech Therapeutics Pty Ltd, priority 2006, dated 2017).
Entries after “also recorded” stand apart in the source; their conditions may differ.

Key:
rat mesangial cell line = experiment: TGF-β stimulated 3H-proline incorporation in mesangial cells (Example 5); assay type: cell-based; conditions: for Mesangial Cell Assay TGF-β % reduction of TGF-β stimulation_proline inc.: 5 ng/mL TGF-β1, 44 h
Mesangial cells = experiment: PDGF stimulated matrix synthesis (proline incorporation) in mesangial cells (Example 3); assay type: cell-based, rat
Source text: Matrix synthesis may be stimulated by platelet derived growth factor (PDGF).

[1] = test system: STZ diabetic (mRen-2)27 rats; experiment: Diabetic (mRen-2)27 rats treated with FT011; assay type: in vivo; conditions: for GFR: 16 weeks
Experimental: Forty six-week old female, heterozygous (mRen-2)27 rats (St. Vincent's Hospital Animal House, Melbourne, Australia) were assigned to receive either 55 mg/kg of STZ (Sigma, St. Louis, USA) diluted in 0.1 M citrate buffer, pH 4.5 or citrate buffer alone (non-diabetic) by tail vein injection following an overnight fast. […] Treatment commenced within 24 hours of STZ or citrate buffer injection.
Rats were individually housed in metabolic cages at 4, 8 12 and 16 weeks, habituated for 2 to 3 hours, and urine collected over 24 hours. […] After 24 hours in metabolic cages, an aliquot of urine (5 mL) was collected from the 24-hour urine sample and stored at −70° C. for subsequent analysis of albumin by radio-immunoassay, as previously performed [36]. Prior to sacrifice, the glomerular filtration rate (GFR) was determined by injecting a single shot of 99Tc-DTPA into the tail vein and sampling the blood after 43 minutes, as previously described [37].
Rats were anaesthetised (Nembutal 60 mg/kg body wt i.p. Boehringer-Ingelheim, Australia). […] Kidneys were excised, decapsulated, sliced transversely, half of the kidney snap frozen for tissue RNA assay and other half immersed fix with formalin and paraffin-embedded for subsequent light microscopic evaluation.
Histopathological changes in kidney and heart were assessed in a masked protocol.
In 4 μm kidney sections stained with PAS, 150 to 200 glomeruli from rats were examined in a masked protocol. […] A glomerulosclerotic index (GSI) was then calculated using the Formula (4):
To assess the tubulointerstitial fibrosis in kidney sections were stained with modified Masson's trichrome. Briefly, 5 random non-overlapping fields from 10 rats per group were captured and digitised using a BX50 microscope attached to a Fujix HC5000 digital camera. Digital images were then loaded onto a Pentium III IBM computer as described as above. An area of red in heart and blue in kidney on picrosirius red and trichrome-stained section, respectively, were selected for its color range and the proportional area of tissue with this range of color was then quantified. Calculation of the proportional area stained red and blue (matrix) was then determined using image analysis (AIS, Analytical imaging Station Version 6.0, Ontario, Canada) [37, 39].

[2] = test system: SD rats post myocardial infarction (LAD ligation); experiment: Myocardial infarct rats treated with FT011; assay type: in vivo
Experimental: Twenty rats underwent ligation of left anterior descending coronary artery (LAD) to induce anterior myocardial infarction (MI). Briefly, surgery performed under aseptic conditions on a heated table (37° C.) to maintain body warmth during the course of the procedure. The chest swabbed with chlorhexidine in 70% ethanol to disinfect the area. An incision made into the skin to the left of the sternum and the underlying muscle layers blunt dissected. A thoracotomy performed through the fourth to fifth intercostal space and the ribs held open using retractors to enable access to the heart. The pericardial sac surrounding the heart torn open and a 6-0 prolene suture used to ligate the LAD immediately. Visible blanching and hypokinesis of the anterior wall of the left ventricle and swelling of the left atrium are indicative of successful ligation. The control groups (sham+vehicle, sham+FT011) underwent a sham operation consisting of the same procedure except that the suture passed through the myocardium beneath the LAD without ligation.
Echocardiography was performed on all animals 2 days post surgery and randomised to sham and MI groups. Animals were re-randomised at day 7 post surgery (10 animal each) to receive: vehicle or FT011 (100 mg/kg bid gavage). Every week, systolic blood pressure (SBP) was determined in preheated conscious rats via tail-cuff plethysmography using a non-invasive blood pressure (NIBP) controller and Powerlab (AD instruments, NSW, Australia). Cardiac function was assessed by echocardiography and cardiac catheterization prior to sacrificing at day 35 post surgery for all animals.
Echocardiography, including Doppler examination, was performed using a Vivid 7 Dimension (GE Vingmed, Horten, Norway) echocardiograph with a 10 MHz phased array probe. Electrocardiographic data were acquired simultaneously. End-diastole was defined as the peak of the R wave, and end-systole was defined as the end of the T wave.
Animals were anaesthetized with pentobarbitone sodium 60 mg/kg i.p. injection. Animals underwent echocardiographic interrogation in the left recumbent position. M-mode echocardiography was performed using a parasternal short axis view at the level of the papillary muscles. Left ventricular posterior (LVPW) and anterior wall thickness (LVAW) were obtained during diastole (d) and systole (s), as were the left ventricular internal diameter at end-diastole (LVIDd) and end-systole (LVIDs). From the para-sternal short axis view, the end diastolic and end systolic cross sectional blood pool areas were measured. Fractional area change (FAC) was then calculated according to the formulae: FAC=[(end-diastolic area-end-systolic area)/end-diastolic area]*100.
The apical 4-chamber view was used to assess early and late transmitral peak diastolic flow velocity (E and A waves), using pulsed wave Doppler with a sample volume of 2 mm placed at the tips of the mitral valve leaflets. All Doppler spectra were recorded for 10 cardiac cycles at a sweep speed of 200 mm/s. All parameters were assessed using an average of three beats, and calculations were made in accordance with the American Society of Echocardiography guidelines. All data were acquired and analyzed by a single blinded observer using EchoPAC (GE Vingmed) offline processing.
Post echocardiography, animals were placed on a warming pad (37° C.), intubated using a 14 gauge catheter, and ventilated using positive pressure with a tidal volume of […] at 70 breaths per minute using room air. Animals were secured in a recumbent position and the right jugular vein was cannulated with 0.9% NaCl infused at 100 μL per hour. […] The right internal carotid was then identified and ligated cranially. A 2F miniaturized combined conductance catheter-micromanometer was inserted into the carotid artery to obtain aortic blood pressure, then advanced into the left ventricle until stable pressure volume (PV) loops were obtained.

[3] = diabetic rats, 100 mg/kg bid gavage
[4] = MI rats, 100 mg/kg bid gavage from day 7, day 35 post surgery
[5] = MI rats, 100 mg/kg bid gavage, echocardiography
[6] = MI rats, 100 mg/kg bid gavage, listed as FT011, 100 mg/kg

C#CCOc1ccc(/C=C/C(=O)Nc2ccccc2C(=O)O)cc1OC [Analogue 11]
Mesangial Cell Assay TGF-β % reduction of TGF-β stimulation_proline inc. (rat mesangial cell line; @ 3 μM): 15% @ 3 | Mesangial Cell Assay TGF-β % reduction of TGF-β stimulation_proline inc. (rat mesangial cell line; @ 10 μM): 20-50% @ 10 | Mesangial Cell Assay TGF-β % reduction of TGF-β stimulation_proline inc. (rat mesangial cell line; @ 30 μM): 50-75% @ 30 | Mesangial Cell Assay TGF-β % reduction of TGF-β stimulation_proline inc. (rat mesangial cell line; @ 100 μM): 60-100% @ 100 | Collagen synthesis (rat mesangial cell line; inhibition ranked against tranilast (T) or FT11): >T | PDGF-stimulated matrix synthesis (proline incorporation) (Mesangial cells; 30 and 100 μM): inhibits | potency at reducing proline incorporation compared with tranilast (Mesangial cells; PDGF stimulation, 30 μM): more potent | GFR ([1]; diabetic rats + FT011 100 mg/kg bid gavage): 5.90 ± 0.20 mL/min | extent of glomerulosclerosis (PAS-stained sections) [1, 3]: reduction | rise in albuminuria [1, 3]: significantly attenuated | tubular (tubulointerstitial) fibrosis (trichrome-stained sections) [1, 3]: reduction | GFR ([1]; non-diabetic control rats + FT011 100 mg/kg bid gavage): 3.63 ± 0.08 mL/min | Myocardial infarct size, treated versus untreated MI groups ([2]; 100 mg/kg bid gavage, P=0.36): similar | LVED ([2]; MI rats, 100 mg/kg bid gavage): 0.53 ± 0.04 mL | LVES ([2]; MI rats, 100 mg/kg bid gavage): 0.15 ± 0.02 mL | LV/BW [2, 4]: 0.22 ± 0.004 | RV/BW [2, 4]: 0.048 ± 0.002 | adverse LV remodelling on echocardiography (LVIDd, LVIDs, FAC, E:A ratio, deceleration time) ([2]; MI rats, 100 mg/kg bid gavage, 5 weeks post MI): significantly attenuated | Deceleration time [2, 5]: 38.64 ± 1.2 ms | E:A ratio [2, 5]: 2.00 ± 0.26 | FAC % [2, 5]: 42.69 ± 2.3 % | LVIDd [2, 5]: 0.92 ± 0.03 cm | LVIDs [2, 5]: 0.70 ± 0.03 cm | collagen subtype I and III immunostaining in non-infarct zone [2, 6]: reduction in immunostaining; also recorded: attenuated | infiltration of ED-1 positive macrophages in non-infarct zone [2, 6]: reduction in macrophage number; also recorded: attenuated | interstitial fibrosis in non-infarct zone (Masson's trichrome) [2, 6]: marked reduction; also recorded: attenuated
